Results from paper PMC12680861, “Comparative analysis of LJ-4378 and tirzepatide in mouse models of obesity and weight regain” (Archives of Pharmacal Research, 2025).

Legend:
Format in all cases: in vivo, C57BL/6 J male mice
[1] = tested on: HFD-fed mice; experiment: Glucose tolerance test and fasting glucose in HFD-fed mice; settings: for fasting glucose levels: 12-h fast; for glucose tolerance (intraperitoneal glucose tolerance test): 14 days treatment
Method: The glucose tolerance test was conducted on mice fasted for 12 h with ad libitum access to water. Mice were intraperitoneally injected with 20% D-( +)-glucose (2 g/kg body weight, #49139, Sigma), and blood glucose levels were measured at each time point using a Gluco Doctor Top meter and strip (Allmedicus, South Korea).

[2] = tested on: HFD-fed mice; experiment: Adipose tissue (gWAT) and systemic inflammation in HFD-fed mice; settings: for serum TNF-α levels: ELISA; for macrophage accumulation in gWAT (F4/80 protein, crown-like structures): compared with HFD controls
Method: (§1) To evaluate the anti-obesity effect in vivo, mice fed either NCD or HFD for 10 weeks were subsequently treated for up to 4 weeks. To control for injection route-related variables, all mice received both intraperitoneal (I.P.) and subcutaneous (S.C.) injections. The administration were as follows: LJ-4378 treated mice received LJ-4378, which was synthesized in our laboratory at > 95% purity (1 mg/kg/day, I.P.) (Hou et al. [2010]; Kim et al. [2022]) along with the vehicle for TZP (40 mM Tris–HCl, pH 8, S.C.); TZP treated mice received TZP (Samms et al. [2021]; Kim et al. [2022]) (LY3298176, MedChemExpress, Monmouth Junction, NJ, USA) (10 nmol/kg/day, S.C.) along with the vehicle for LJ-4378 (0.2% DMSO, I.P.); vehicle control mice received both vehicles (0.2% DMSO, I.P. and 40 mM Tris–HCl, pH 8, S.C.)
The serum TNF-α level was measured using TNF-alpha ELISA MTA00B (R&D system) in accordance with the manufacturer’s protocol.
For protein extraction, we utilized PRO-RERP Protein Extraction Solution (17081, iNtRON Biotechnology, Gyeonggi-do, Korea), supplemented with […] Protease Inhibitor (S8820, Sigma, St. Louis, MO, USA) and PhosSTOP phosphatase inhibitor (#4906837001, Roche, Basel, Switzerland). Protein concentrations were determined using the Pierce BCA protein assay Kit (#23227, Thermo Fisher, Waltham, Massachusetts, USA) by measuring absorbance at 562 nm with a MultiSkan GO spectrophotometer (Thermo Fisher). The quantified proteins were loaded and separated in 12% SDS-PAGE gels and transferred to polyvinylidene difluoride (PVDF) membranes (Bio-Rad, Hercules, CA, USA). Membranes were blocked in 5% bovine serum albumin or skim milk in Tris-buffered saline with 0.1% Tween 20 (TBST) for 1 h, followed by overnight incubation with primary antibodies. The next day, membranes were washed 3 times with TBST and incubated for 1 h with horseradish peroxidase (HRP)-conjugated secondary antibody: Goat anti-rabbit (1:3000, #31460, Thermo Fisher) and Goat anti-Mouse IgG (1:3000, 115–035-174, Jackson ImmunoResearch). After secondary antibody incubation, membranes were washed 3 times with TBST and detected with the Fusion Solo chemiluminescence imaging system (Vilber Lourmat, France). EvolutionCapt (version 17.03) software and the ImageJ (National Institutes of Health, Bethesda, MD, USA) program were used for analysis and to quantify the protein level.
RT-qPCR was conducted according to the method (Cho et al. [2022]). The tissue samples were lysed in TRIzol (#15596018, Thermo Fisher), and the total RNA was extracted. The extracted RNA was synthesized into cDNA using the cDNA Reverse Transcription Kit (Applied Biosystems, Waltham, MA, USA). mRNA levels were quantified using iQ SYBR Green Supermix on the CFX Connect Real-time system (Bio-rad). Relative expression levels of each gene were calculated using the […] method, with the reference housekeeping gene as follows: Peptidylprolyl isomerase A (Ppia) for adipose tissue and glyceraldehyde-3-phosphate dehydrogenase (Gapdh) for hypothalamus.
Adipose tissues were fixed in 10% formalin (HT50128, Sigma) for 2 days and made into paraffin slides. The deparaffinized sections were stained with ClearView Staining Hematoxylin (MA010081, BBC Biochemical, Mount Vernon, WA, USA) and Eosin Y Alcoholic (#3610, BBC Biochemical) solution. The crown-like structure formation of gonadal white adipose tissue (gWAT) and triglyceride (TG) accumulation in the liver are observed using hematoxylin and eosin staining on paraffin slides. The images were captured using Nikon Elements (NIS BR Analysis ver 5.10.00).

[3] = tested on: HFD-fed mice; experiment: Indirect calorimetry and food intake in HFD-fed mice; settings: for energy expenditure adjusted for body weight and lean body mass (ANCOVA) / food intake (indirect calorimetry): HFD-fed mice; for VO2, VCO2 and energy expenditure: relative to HFD controls, last 2 days of 14-day treatment
Method: as §1
(§2) To assess post-treatment weight rebound (WR), the mice previously treated with vehicle, LJ-4378, or TZP were maintained on HFD for an additional 4 weeks following treatment cessation. Treatment protocols for the WR groups were identical to those of the HFD groups. In total, nine experimental groups were established: NCD + CTL, NCD + LJ, NCD + TZP; HFD + CTL, HFD + LJ, HFD + TZP; and WR + CTL, WR + LJ, WR + TZP. The volume of oxygen consumed (VO2), carbon dioxide produced (VCO2), respiratory exchange ratio (RER), energy expenditure, activity, and food intake were measured with PhenoMaster (TSE Systems, Bad Homburg, Germany). Indirect calorimetry was performed under controlled conditions, with a stable ambient temperature of 24 °C and a 12 h light/12-h dark cycle. Mice fed HFD were administered vehicle, LJ-4378, or TZP for 14 days, and the last 2 days of treatment were conducted during indirect calorimetry analysis. The WR model was examined by indirect calorimetry after 2 and 4 weeks of the weight regaining phase.

[4] = tested on: HFD-fed mice; experiment: Hepatic PKA signaling (immunoblot, liver); settings: P-HSL/HSL, P-CREB/CREB
Method: To evaluate the anti-obesity effect in vivo, mice fed either NCD or HFD for 10 weeks were subsequently treated for up to 4 weeks. To control for injection route-related variables, all mice received both intraperitoneal (I.P.) and subcutaneous (S.C.) injections. […]
For protein extraction, we utilized PRO-RERP Protein Extraction Solution (17081, iNtRON Biotechnology, Gyeonggi-do, Korea), supplemented with […] […] Protein concentrations were determined using the Pierce BCA protein assay Kit (#23227, Thermo Fisher, Waltham, Massachusetts, USA) by measuring absorbance at 562 nm with a MultiSkan GO spectrophotometer (Thermo Fisher). The quantified proteins were loaded and separated in 12% SDS-PAGE gels and transferred to polyvinylidene difluoride (PVDF) membranes (Bio-Rad, Hercules, CA, USA). […] After secondary antibody incubation, membranes were washed 3 times with TBST and detected with the Fusion Solo chemiluminescence imaging system (Vilber Lourmat, France). EvolutionCapt (version 17.03) software and the ImageJ (National Institutes of Health, Bethesda, MD, USA) program were used for analysis and to quantify the protein level.
Western blot analysis of P-HSL/HSL and P-CREB/CREB in liver. […] Statistical significance was determined using two-way ANOVA followed by Bonferroni post hoc test.

[5] = tested on: WR mice; experiment: Weight rebound (WR) model: body weight, food intake, adiposity after treatment cessation; settings: for body weight after treatment cessation: 4 weeks post-cessation on HFD; for food intake after withdrawal: 16 days after cessation; for body weight regained over 4 weeks as a percentage of the initial weight loss: WR groups, 4 weeks after 14-day treatment; for food intake during the 14-day treatment: measured every 2 days
Excerpt: as §2
Additionally, food consumption was measured every 2 days during the 14-day treatment period and for an additional 16 days post-administration.
Body composition and micro-CT analysis were performed after the treatment with vehicle, LJ-4378, or TZP for the indicated duration in HFD-fed mice and WR mice.
A nuclear magnetic resonance (NMR) technology system with EchoMRI-700 (Echo Medical Systems, […]) was used to analyze body composition.
To assess the abdominal fat volume, we employed the Quantum GX2 micro-CT imaging system (PerkinElmer, Waltham, MA, USA). Mice were anesthetized with isoflurane and positioned on the micro-CT bed for imaging of the abdominal region, defined from the proximal end of the L1 vertebra to the distal end of the L5 vertebra. Imaging was performed at 90 kV/88 µA with a field of view of 72 mm, a pixel size of 90 µm, and a 2-min acquisition time at standard resolution. Visceral, subcutaneous, and total abdominal fat volumes were quantified using AnalyzeDirect software (ver. 12.0, Overland Park, KS, USA).

[6] = 4 weeks after treatment cessation

Compound | fasting glucose levels [1] | glucose tolerance (intraperitoneal glucose tolerance test) [1] | serum TNF-α levels ([2]; HFD-fed mice) | Adgre1 and Tnf-α expression in gWAT ([2]; HFD-fed mice, RT-qPCR) | M2-like macrophage markers (Arg1, Clec10a, Chil3, Il-10) in gWAT ([2]; HFD-fed mice, RT-qPCR) | macrophage accumulation in gWAT (F4/80 protein, crown-like structures) [2] | energy expenditure adjusted for body weight and lean body mass (ANCOVA) [3] | food intake (indirect calorimetry) [3] | VO2, VCO2 and energy expenditure [3] | phosphorylation of downstream targets of PKA in the liver [4] | gWAT and visceral abdominal fat, compared with the TZP group [5, 6] | whole-body fat ratio, LJ-4378 versus TZP [5, 6] | body weight after treatment cessation [5] | food intake after withdrawal [5] | body weight regained over 4 weeks as a percentage of the initial weight loss [5] | food intake during the 14-day treatment [5]
CCCCC#Cc1nc(N)c2ncn([C@@H]3SC[C@@H](O)[C@H]3O)c2n1 [LJ-4378] | significantly lower | markedly enhanced | reduced | remarkably suppressed | selectively upregulated | significantly reduced | consistently increased energy expenditure | did not affect the feeding behavior | significantly increased | Neither LJ-4378 nor TZP altered the phosphorylation | reduction | significantly lower | maintained a relatively low body weight | did not alter food intake during or after treatment | 88% | did not alter food intake during or after treatment
Tirzepatide [TZP, reference compound] | significantly lower | markedly enhanced | reduced | remarkably suppressed |  | significantly reduced | not significant when LBM was used as the covariate | reduced food consumption | significantly increased | Neither LJ-4378 nor TZP altered the phosphorylation |  |  | rapid weight regain | sharp rebound in food consumption | 127% | significantly suppressed food intake
